Experimental data from ChEMBL document CHEMBL1201862, “PubChem BioAssay data set” (2004).
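In this assay, cells in 96-well plates receive the compound at five concentrations for 48 hours. Endpoints are linearly interpolated between the surrounding concentrations. The concentration for 50% growth inhibition is given as GI50.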 Activity calls are given as the source filed them. Cut-off read from the data, not from the text of the source: active = GI50 up to about 1.1 µM and inactive = higher.

Tests used:
Experiment in all cases: inhibition of tumour cell growth, NCI panel, 48 h
BT-549 = tested on: BT-549
LXFL 529 = tested on: LXFL 529
DMS-114 = tested on: DMS-114
SNB-78 = tested on: SNB-78
KM-20L2 = tested on: KM-20L2
XF498 = tested on: XF498
M19-MEL = tested on: M19-MEL
HOP-18 = tested on: HOP-18

N#C[C@H](C(=O)c1ccccc1F)c1nc2ccccc2s1
GI50 (BT-549): 46.6 µM (inactive)

O=[N+]([O-])c1ccc2[nH]ncc2c1Cl
GI50 (BT-549): 38.5 µM (inactive)

Nc1nnc2c(-c3ccccc3)n[nH]c2n1
GI50 (LXFL 529): 77.4 µM (inactive)
GI50 (DMS-114): > 100 µM (inactive)
GI50 (SNB-78): 49.3 µM (inactive)
GI50 (KM-20L2): 49.8 µM (inactive)

CC[C@@]1(O)C(=O)OCc2c1cc1n(c2=O)Cc2c-1nc1ccccc1c2/C=N/NC(=O)C[N+](C)(C)C
GI50 (BT-549): 15.4 µM (inactive)

CC(C)OP(=S)(NC(=S)c1ccccc1)OC(C)C
GI50 (LXFL 529): 87.3 µM (inactive)
GI50 (DMS-114): 78 µM (inactive)
GI50 (XF498): > 100 µM (inactive)
GI50 (SNB-78): > 100 µM (inactive)
GI50 (KM-20L2): > 100 µM (inactive)

CSc1nnc2n1-c1ccccc1SCC2
GI50 (M19-MEL): > 100 µM (inactive)
GI50 (LXFL 529): > 100 µM (inactive)
GI50 (DMS-114): > 100 µM (inactive)
GI50 (XF498): > 100 µM (inactive)
GI50 (SNB-78): > 100 µM (inactive)
GI50 (HOP-18): > 100 µM (inactive)
GI50 (KM-20L2): > 100 µM (inactive)

CCOc1cc2c(cc1O)/C(=N\O)C[C@@H]1[C@@H]2CC[C@]2(C)[C@@H](O)CC[C@@H]12
GI50 (BT-549): 0.0371 µM (active)

SC1CCCN(Cc2ccccc2)C1 (stereo not drawn)
GI50 (BT-549): > 100 µM (inactive)

COc1cc(Oc2nc3ccccc3nc2C(=O)O)cc(OC)c1OC
GI50 (BT-549): > 100 µM (inactive)

COc1ccc(/N=C2\C(=N/c3ccc(OC)cc3)N(c3ccc(N(C)C)cc3)C(=S)N2c2ccc(OC)cc2)cc1
GI50 (BT-549): > 100 µM (inactive)

NCCCC1NC(=O)/C(=C(O)/C=C/C2CCC[C@@H]2CC2SCCS2)C1=O (stereo partly drawn)
GI50 (M19-MEL): > 100 µM (inactive)
GI50 (LXFL 529): 75 µM (inactive)
GI50 (DMS-114): 86.3 µM (inactive)
GI50 (HOP-18): 82.6 µM (inactive)
GI50 (KM-20L2): > 100 µM (inactive)

CC(/C=C/c1ccccc1)=N\NC(N)=S
GI50 (BT-549): 29.9 µM (inactive)

O=C1/C(=C/c2ccc(O)c(CN3CCCCC3)c2)CCC/C1=C\c1ccc(O)c(CN2CCCCC2)c1
GI50 (BT-549): 10.4 µM (inactive)

CC(=O)c1c2c(cc3c1CC1(C3)Cc3ccc4c(c3C1=O)CCC4)CCC2 (stereo not drawn)
GI50 (BT-549): 62.4 µM (inactive)

C[C@H]1C2Cc3cc(N)ccc3[C@@]1(C)CCN2CCc1ccccc1
GI50 (BT-549): > 100 µM (inactive)

CC12CC3OC(=O)C1COC14OC5(C2C1=O)C(O)(CCC1C4CC(O)C2(O)CC=CC(=O)C12C)C(=O)OC35C (stereo not drawn)
GI50 (BT-549): > 100 µM (inactive)

CC1=C(C(=O)OCCO[N+](=O)[O-])C(c2cccc([N+](=O)[O-])c2)C(C(=O)OC(C)C)=C(C)N1 (stereo not drawn)
GI50 (BT-549): 14 µM (inactive)

COc1c(O)cc(/C=C/c2cc(O)cc3c2[C@@]2(C(=O)O3)c3c(O)cc(O)cc3OC2c2cccc(O)c2)cc1O (stereo partly drawn)
GI50 (BT-549): 23.7 µM (inactive)

COc1ccc(NCc2cc(OC)c(OC)c(OC)c2)cc1
GI50 (LXFL 529): 0.408 µM (active)
GI50 (KM-20L2): 0.238 µM (active)

CC[C@]12C=CCN3CC[C@@]4(c5cc(Br)c(OC)cc5N(C)[C@H]4[C@@](O)(C(=O)NN)[C@@H]1O)[C@@H]32
GI50 (BT-549): 36.1 µM (inactive)

Oc1ccccc1/C=N/c1ccc(-c2nc3ccccc3[nH]2)cc1
GI50 (BT-549): 12.8 µM (inactive)

O=P1(O)c2ccccc2CCc2ccccc21
GI50 (BT-549): 80.7 µM (inactive)

Cc1ccc(NCc2nnc3c(-c4ccccc4)nc4ccccc4n23)cc1
GI50 (BT-549): 37.4 µM (inactive)

ON(CCc1ccncc1)Cc1ccccc1
GI50 (BT-549): > 100 µM (inactive)

Cc1[nH]n(C2=NCCN2)c(=O)c1C
GI50 (BT-549): > 100 µM (inactive)

O=C1Nc2ccc(Br)cc2/C1=N/Nc1ccccc1[N+](=O)[O-]
GI50 (BT-549): 30.7 µM (inactive)

Cc1ccc(O)c(-c2cscn2)c1
GI50 (BT-549): 74.5 µM (inactive)

CCCCCCCCCCOCCOCCOCCOCCCCC(O)CCCCCCCC1=C[C@H](C)OC1=O (stereo partly drawn)
GI50 (BT-549): 0.959 µM (active)

CC(=O)O[C@H]1[C@H](OC(C)=O)[C@@H](CN=[N+]=[N-])OCO[C@@H]1CN=[N+]=[N-]
GI50 (BT-549): > 100 µM (inactive)

COc1ccc(/C=N\N(C)Cc2cccc3ccsc23)cc1
GI50 (BT-549): > 100 µM (inactive)

CC1(C)OC2C(O1)[C@H]1OC(C(Cl)(Cl)Cl)=N[C@H]1C(I)[C@H]2N1C(=O)c2ccccc2C1=O (stereo partly drawn)
GI50 (M19-MEL): 69.8 µM (inactive)
GI50 (LXFL 529): 50.2 µM (inactive)
GI50 (DMS-114): 30.6 µM (inactive)
GI50 (SNB-78): 73.3 µM (inactive)
GI50 (HOP-18): > 100 µM (inactive)
GI50 (KM-20L2): 60.4 µM (inactive)

O=C(NCCO)c1c(O)c2ccccc2[nH]c1=O
GI50 (BT-549): > 100 µM (inactive)

CC1CC[C@@]2(OC1)OC1C[C@H]3[C@@H]4CC=C5C[C@@H](OC6OC(CO)C(OC7OC(CO)C(O)C(O)C7O)C(O)C6OC6OC(C)C(O)C(O)C6O)CC[C@]5(C)[C@H]4CC[C@]3(C)C1[C@@H]2C (stereo partly drawn)
GI50 (BT-549): 0.463 µM (active)

C/C(=N\Nc1nc2cccnc2s1)c1ccccn1
GI50 (BT-549): 0.117 µM (active)

Cc1nc(-c2nc(C)c(C(=O)NNC(=O)C[n+]3ccccc3)s2)sc1C(=O)NNC(=O)C[n+]1ccccc1
GI50 (M19-MEL): > 100 µM (inactive)
GI50 (LXFL 529): 91 µM (inactive)
GI50 (DMS-114): 66.8 µM (inactive)
GI50 (SNB-78): 54.8 µM (inactive)
GI50 (KM-20L2): > 100 µM (inactive)

Brc1cccc(Nc2ncnc3sc4c(c23)CCC2(C4)OCCO2)c1
GI50 (BT-549): 27.5 µM (inactive)

COc1cc(Nc2cnc3ccc(C(F)(F)F)cc3n2)cc(OC)c1OC
GI50 (M19-MEL): 13.6 µM (inactive)
GI50 (LXFL 529): 27.4 µM (inactive)
GI50 (SNB-78): > 100 µM (inactive)
GI50 (HOP-18): > 100 µM (inactive)
GI50 (KM-20L2): 3.79 µM (inactive)

CC1(C)COCN1COC1CCCCC1
GI50 (BT-549): > 100 µM (inactive)

Cc1ccnc2c1C(=O)C1=C(OC(C)(C)CC1O)C2=O (stereo not drawn)
GI50 (BT-549): 3.36 µM (inactive)

Cc1ccc(S(=O)(=O)Nc2nc3ccccc3c(=O)n2C2CCCCC2)cc1
GI50 (BT-549): 28.1 µM (inactive)

C=C(C)C1CC[C@@](C)(O)[C@H](C#N)C1 (stereo partly drawn)
GI50 (BT-549): > 100 µM (inactive)

CCOC(=O)C1=C(C)N(Cc2ccc(Cl)cc2Cl)C2(O)C(OC)CC(=O)C3C(=O)N(c4ccccc4)C(=O)C132 (stereo not drawn)
GI50 (BT-549): 1.61 µM (inactive)

C=CCN1/C(=C2\SC(=S)N(c3ccc(C)cc3)C2=O)Sc2c1nc[nH]c2=O
GI50 (M19-MEL): > 100 µM (inactive)
GI50 (LXFL 529): > 100 µM (inactive)
GI50 (DMS-114): 76.9 µM (inactive)
GI50 (XF498): > 100 µM (inactive)
GI50 (SNB-78): > 100 µM (inactive)
GI50 (KM-20L2): > 100 µM (inactive)

Cc1cc(S(=O)(=O)NC2=Nc3cccc4cccc(c34)N2)c(S)cc1Cl
GI50 (BT-549): > 100 µM (inactive)

COC(=O)/C(=C/c1ccc(OC)cc1)NC(=O)c1ccccc1
GI50 (LXFL 529): > 100 µM (inactive)
GI50 (DMS-114): > 100 µM (inactive)
GI50 (KM-20L2): > 100 µM (inactive)

COc1ccc2c(c1)CCc1[nH]c3ccccc3c1CCCC2
GI50 (BT-549): > 10 µM (inactive)

C=CC(C)(C)NC(C(=O)N1CCC[C@H]1c1nc(-c2nc(C(=O)OCC=C(C)C)c(C)o2)c(C)o1)C(C)C (stereo partly drawn)
GI50 (BT-549): > 100 µM (inactive)

Cn1c(C(O)C2(c3cccnc3)SCCCS2)cc2ccccc21 (stereo not drawn)
GI50 (BT-549): 44.5 µM (inactive)

Cc1n[nH]c(=O)n1Nc1ccccc1
GI50 (BT-549): > 100 µM (inactive)

CCOC(=O)/C=C(/C(=O)OCC)n1cc(C)c(=O)n(/C(=C/C(=O)OCC)C(=O)OCC)c1=O
GI50 (BT-549): 5.79 µM (inactive)

CCc1cn2c(/C=N/N=C(N)N)c(-c3cc(C)c(Cl)cc3Cl)nc2s1
GI50 (BT-549): 1.64 µM (inactive)

COC(=O)CCC(=O)NC1=C(NCc2ccccc2)C(=O)c2ccccc2C1=O
GI50 (BT-549): 46.7 µM (inactive)

COc1ccc(/C=c2/sc3n(c2=O)NC(c2ccc(Cl)cc2)NN=3)cc1 (stereo not drawn)
GI50 (M19-MEL): > 100 µM (inactive)
GI50 (LXFL 529): > 100 µM (inactive)
GI50 (DMS-114): 58.5 µM (inactive)
GI50 (XF498): 51.8 µM (inactive)
GI50 (SNB-78): > 100 µM (inactive)
GI50 (KM-20L2): > 100 µM (inactive)

O=C1C=CC(=O)C(N(CCO)CCO)=C1.O=C1C=CC2(O)OCCN(CCO)C2=C1
GI50 (BT-549): > 100 µM (inactive)

COC(=O)c1cc2c(cc1Cl)Sc1nnc(Nc3ccc(C)cc3)n1S2(=O)=O
GI50 (BT-549): 13.4 µM (inactive)
